According to patent publication US8771944B2, “Use of micro-RNA as a biomarker of immunomodulatory drug activity” (Celgene Corporation, priority 2007, dated 2014):

Columns and labels:
[1] = cited from earlier work
CD34+ cells = assay: qRT-PCR of miR-130a and miR-146b in CD34+ cell cultures; assay type: cell-based; conditions: 6 days, 1 or 10 μm
Procedure: CD34^+ cells were expanded for 6 days in Iscove's DMEM media (Invitrogen) with 20% BIT serum substitute (StemCell Technologies) in the presence of SCF (100 ng/ml), Flt-3 ligand (100 ng/ml), and IL-3 (20 ng/ml) and then differentiated for 6 days in Iscove's/20% BIT containing SCF (50 ng/ml) and erythropoietin (2 U/ml) in the presence of 0.1% DMSO, 1 or 10 uM the immunomodulatory compound. Cells were grown in tissue culture and treated with the immunomodulatory compound according to methods known in the art.
To quantitate selected miRNAs with qRT-PCR, purified miRNA was analyzed using a TaqmanR microRNA Assay (Applied Biosystems). Five ng of purified miRNA was subjected to qRT-PCR with TaqmanR miRNA assay according to manufacturers instructions. Alternatively, the procedure may be achieved by using miRNA-specific reverse transcription and PCR primers with standard buffers, reagents, and methods.
Levels of miR-130a and miR-146b were determined using qRT-PCR as described above.

Namalwa cells [2] = assay: miRNA expression profile / qRT-PCR of miR-143 and miR-145 in Namalwa cells; assay type: cell-based; conditions: 10 μM, 6 or 24 hours, FIG. 2
Procedure: An experiment similar to described above in Sections 6.1-6.5 was performed with a Namalwa lymphoma cell line model. The Namalwa Burkitt's lymphoma cell line was purchased from ATCC and grown in RPMI with 10% fetal bovine serum according to standard tissue culture methods known in the art.
Namalwa cells grown as above were treated for 6 or 24 hours with either 0.1% DMSO, 10 μM 1,3-dioxo-2-(2,6-dioxopiperidin-3-yl)-4-aminoisoindoline, or the HDAC inhibitor TSA 1 μM. Cells were harvested at indicated times and then miRNA was purified as outlined in previous sections.
miRNA expression profiles in Namalwa cells treated with immunomodulatory compounds were generated using methods similar to that described in Section 6.3.
Levels of miR-145 and miR-143 were determined using qRT-PCR. Purified miRNA was analyzed using a TaqmanR microRNA expression assay (Applied Biosystems). Five ng of purified miRNA was subjected to qRT-PCR with TaqmanR miRNA assays for miR-143 and miR-145 according to manufacturers instructions. The procedure may be achieved by using miRNA reverse transcription and PCR primers with standard buffers, reagents, and methods.

[3] = tested on: CD34+ hematopoietic precursor cells; assay: miRNA differential expression profiling (Ambion Bioarrays) in CD34+ cells; assay type: cell-based; conditions: CD34+ hematopoietic precursor model
Source text: A CD34^+ hematopoietic precursor cell line was utilized to examine miRNA biomarker expression upon treatment with an immunomodulatory compound. CD34^+ cells used in preclinical studies were purchased from a commercial supplier (Lonza), isolated by positive immunomagnetic selection from bone marrow. In clinical studies, CD34^+ cells can be purified by positive immunomagnetic selection or by flow cytometric immunosorting from bone marrow or peripheral blood using conventional methodologies.
CD34^+ cells were expanded for 6 days in Iscove's DMEM media (Invitrogen) with 20% BIT serum substitute (StemCell Technologies) in the presence of SCF (100 ng/ml), Flt-3 ligand (100 ng/ml), and IL-3 (20 ng/ml) and then differentiated for 6 days in Iscove's/20% BIT containing SCF (50 ng/ml) and erythropoietin (2 U/ml) in the presence of 0.1% DMSO, 1 or 10 uM the immunomodulatory compound. Cells were grown in tissue culture and treated with the immunomodulatory compound according to methods known in the art. […]
The expression array method detected two miRNAs that were regulated by administration of immunomodulatory agents in the CD34^+ hematopoietic precursor model.

Namalwa cells [4] = assay: Agilent miRNA array v2, lenalidomide-treated Namalwa cells; assay type: cell-based, human; conditions: for miR-143 Fold Increase / miR-145 Fold Increase: Namalwa cells
Procedure: (§1) Additional assays were performed to determine the effects of lenalidomide (1-oxo-2-(2,6-dioxopiperidin-3-yl)-4-aminoisoindoline) administration to various cell cultures on the expression of miRNAs. The miRNAs were detected using the Agilent miRNA array v2, which contains probes for 760 human miRNAs. […] was isolated using the Qiagen miRNeasy kit, total RNA (100 ng) was dephosphorylated and ligated with pCp-Cy3. Labeled RNA was purified and hybridized to Agilent miRNA arrays.
Namalwa cells: Lenalidomide was added to Namalwa cells at a concentration of 0.1 μm, 1 μm, or 10 μm. The miRNA levels were measured at 24 and 48 hours after addition of the lenalidomide. The results with this array confirmed the upregulation of miR-143 and miR-145 in Namalwa cells in a dose-dependent response to administration of 1-oxo-2-(2,6-dioxopiperidin-3-yl)-4-aminoisoindoline (Table 2).

HL60 cells = assay: Agilent miRNA array v2, lenalidomide-treated HL60 cells; assay type: cell-based, human; conditions: for miR-99b Fold Increase / miR-125a Fold Increase / miR-143 Fold Increase / miR-145 Fold Increase / miR-146b Fold Increase: HL-60 cells
Procedure: as §1
HL60 cells: The addition of lenalidomide (1-oxo-2-(2,6-dioxopiperidin-3-yl)-4-aminoisoindoline) to a cell culture from an acute myelogenous leukemia (AML) cell line (HL60) was also shown to upregulate a number of miRNAs.

H929 cells = assay: Agilent miRNA array v2, lenalidomide-treated H929 cells; assay type: cell-based, human; conditions: for miR-204 Fold Increase / miR-424 Fold Increase / miR-503 Fold Increase: H929 cells
Procedure: as §1

[5] = Namalwa cells, 0.1, 1 or 10 μm, 24 and 48 hours, dose-dependent response
[6] = 24 hour treatment, 0.1 uM lenalidomide
[7] = 24 hour treatment, 1 uM lenalidomide
[8] = 24 hour treatment, 10 uM lenalidomide
[9] = 48 hour treatment, 0.1 uM lenalidomide
[10] = 48 hour treatment, 1 uM lenalidomide
[11] = HL60 acute myelogenous leukemia cell line
[12] = HL60 cells, dose dependent manner at both 24 and 48 hours
[13] = 24 hour treatment, Lenalidomide 0.1 uM
[14] = 24 hour treatment, Lenalidomide 1.0 uM
[15] = 24 hour treatment, Lenalidomide 10.0 uM
[16] = 48 hour treatment, Lenalidomide 0.1 uM
[17] = 48 hour treatment, Lenalidomide 1.0 uM
[18] = 48 hour treatment, Lenalidomide 10.0 uM
[19] = H929 multiple myeloma cell line, 24 and 48 hours

## Nc1cccc2c1CN(C1CCC(=O)NC1=O)C2=O (stereo not drawn) [Form E, 3-(4-amino-1-oxo-1,3 dihydro-isoindol-2-yl)-piperidene-2,6-dione]
[1]
  stability of polymorphic form in aqueous solvent systems: most stable form

## Nc1cccc2c1C(=O)N(C1CCC(=O)NC1=O)C2=O (stereo not drawn) [1,3-dioxo-2-(2,6-dioxopiperidin-3-yl)-4-aminoisoindoline]
CD34+ cells; FIG. 1A
  miR-146b expression (qRT-PCR) compared to DMSO control: upregulation
CD34+ cells; FIG. 1B
  miR-130a expression (qRT-PCR) compared to DMSO control: upregulation
Namalwa cells [2]
  miR-143 expression change: upregulation
  miR-145 expression change: upregulation
[3]
  miR-130a expression change (expression array): upregulated
  miR-146b expression change (expression array): upregulated

## Nc1cccc2c1CN(C1CCC(=O)NC1=O)C2=O (stereo not drawn) [lenalidomide, 1-oxo-2-(2,6-dioxopiperidin-3-yl)-4-aminoisoindoline]
Namalwa cells [4]; [5]
  miR-143 expression change: upregulation
  miR-145 expression change: upregulation
Namalwa cells [4]; [6]
  miR-143 Fold Increase: 2.29 fold
  miR-145 Fold Increase: 2.34 fold
Namalwa cells [4]; [7]
  miR-143 Fold Increase: 3.81 fold
  miR-145 Fold Increase: 4.16 fold
Namalwa cells [4]; [8]
  miR-143 Fold Increase: 4.69 fold
  miR-145 Fold Increase: 4.96 fold
Namalwa cells [4]; [9]
  miR-143 Fold Increase: 2.31 fold
  miR-145 Fold Increase: 2.53 fold
Namalwa cells [4]; [10]
  miR-143 Fold Increase: 4.68 fold
  miR-145 Fold Increase: 5.12 fold
HL60 cells; [11]
  miR-143 expression change: upregulated
  miR-145 expression change: upregulated
HL60 cells; [12]
  miR-99b expression change: upregulated
  miR-125a expression change: upregulated
  miR-146b expression change: upregulated
HL60 cells; [13]
  miR-99b Fold Increase: 1.81 fold
  miR-125a Fold Increase: 1.56 fold
  miR-143 Fold Increase: 1.42 fold
  miR-145 Fold Increase: 1.33 fold
  miR-146b Fold Increase: 2.28 fold
HL60 cells; [14]
  miR-99b Fold Increase: 2.37 fold
  miR-125a Fold Increase: 1.93 fold
  miR-143 Fold Increase: 1.56 fold
  miR-145 Fold Increase: 1.62 fold
  miR-146b Fold Increase: 2.99 fold
HL60 cells; [15]
  miR-99b Fold Increase: 2.53 fold
  miR-125a Fold Increase: 2.04 fold
  miR-143 Fold Increase: 1.63 fold
  miR-145 Fold Increase: 1.77 fold
  miR-146b Fold Increase: 3.29 fold
HL60 cells; [16]
  miR-99b Fold Increase: 1.99 fold
  miR-125a Fold Increase: 1.72 fold
  miR-143 Fold Increase: 1.96 fold
  miR-145 Fold Increase: 1.89 fold
  miR-146b Fold Increase: 4.38 fold
HL60 cells; [17]
  miR-99b Fold Increase: 2.45 fold
  miR-125a Fold Increase: 2.05 fold
  miR-143 Fold Increase: 2.40 fold
  miR-145 Fold Increase: 2.27 fold
  miR-146b Fold Increase: 7.16 fold
HL60 cells; [18]
  miR-99b Fold Increase: 2.69 fold
  miR-125a Fold Increase: 2.24 fold
  miR-143 Fold Increase: 2.25 fold
  miR-145 Fold Increase: 2.34 fold
  miR-146b Fold Increase: 7.07 fold
H929 cells; [13]
  miR-204 Fold Increase: 1.75 fold
  miR-424 Fold Increase: 1.50 fold
  miR-503 Fold Increase: 1.61 fold
H929 cells; [14]
  miR-204 Fold Increase: 2.20 fold
  miR-424 Fold Increase: 2.08 fold
  miR-503 Fold Increase: 2.37 fold
H929 cells; [15]
  miR-204 Fold Increase: 2.00 fold
  miR-424 Fold Increase: 2.10 fold
  miR-503 Fold Increase: 2.44 fold
H929 cells; [16]
  miR-204 Fold Increase: 2.61 fold
  miR-424 Fold Increase: 1.71 fold
  miR-503 Fold Increase: 1.89 fold
H929 cells; [17]
  miR-204 Fold Increase: 4.30 fold
  miR-424 Fold Increase: 3.08 fold
  miR-503 Fold Increase: 3.80 fold
H929 cells; [18]
  miR-204 Fold Increase: 4.45 fold
  miR-424 Fold Increase: 3.36 fold
  miR-503 Fold Increase: 4.05 fold
H929 cells; [19]
  miR-204 expression change: increase in expression in a dose dependent manner
  miR-424 expression change: increase in expression in a dose dependent manner
  miR-503 expression change: increase in expression in a dose dependent manner
